Assay results taken from ChEMBL document CHEMBL1201862, “PubChem BioAssay data set” (2004).
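Growth conditions: 96-well plates. Treatment: test compound, 48 hours, 5 concentrations. Analysis: linear interpolation between bracketing concentrations; unreached endpoints set to highest concentration. GI50: concentration for 50% inhibition of growth.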 Activity calls are given as the source filed them. Rule as the data show it: active = GI50 up to about 1.1 µM and inactive = higher.

Key:
Test in all cases: NCI-60 cell line screen, 48 h
[1] = tested on: A549
[2] = tested on: CAKI-1
[3] = tested on: CCRF-CEM
[4] = tested on: HCT-116
[5] = tested on: HT-29
[6] = tested on: IGROV-1
[7] = tested on: KM12
[8] = tested on: M14
[9] = tested on: SF-268
[10] = tested on: SF-295
[11] = tested on: SF-539
[12] = tested on: SK-MEL-28
[13] = tested on: SK-OV-3
[14] = tested on: SN12C
[15] = tested on: SNB-19
[16] = tested on: SW-620
[17] = tested on: U-251
[18] = tested on: RPMI-8226
[19] = tested on: HL-60

| Compound | GI50 [1] | GI50 [2] | GI50 [3] | GI50 [4] | GI50 [5] | GI50 [6] | GI50 [7] | GI50 [8] | GI50 [9] | GI50 [10] | GI50 [11] | GI50 [12] | GI50 [13] | GI50 [14] | GI50 [15] | GI50 [16] | GI50 [17] | GI50 [18] | GI50 [19] |
| --- | --- | --- | --- | --- | --- | --- | --- | --- | --- | --- | --- | --- | --- | --- | --- | --- | --- | --- | --- |
| COc1ccc(CCn2ccc(C)n2)c(OC)c1 | > 100 µM (inactive) | > 100 µM (inactive) | > 100 µM (inactive) | > 100 µM (inactive) | > 100 µM (inactive) | > 100 µM (inactive) | > 100 µM (inactive) | > 100 µM (inactive) | > 100 µM (inactive) | > 100 µM (inactive) | > 100 µM (inactive) | > 100 µM (inactive) | > 100 µM (inactive) | 46 µM (inactive) | > 100 µM (inactive) | > 100 µM (inactive) | > 100 µM (inactive) |  |  |
| CC/C=C(\C(=C/CC)[N+](=O)[O-])[N+](=O)[O-] | 74.6 µM (inactive) | 23.2 µM (inactive) | 8.22 µM (inactive) | 19.9 µM (inactive) | 16.4 µM (inactive) | 17.6 µM (inactive) | > 10 µM (inactive) | 13.4 µM (inactive) |  | > 100 µM (inactive) | 21.3 µM (inactive) | 19.9 µM (inactive) | > 100 µM (inactive) | 18.9 µM (inactive) | > 100 µM (inactive) | 17.1 µM (inactive) | 17.7 µM (inactive) | 24.1 µM (inactive) |  |
| CCCNC(=O)C(C)C1CCC2(C)C=CC(=O)C(C)=C2C1O (configuration not stated) | > 100 µM (inactive) | > 100 µM (inactive) | > 100 µM (inactive) | > 100 µM (inactive) | > 100 µM (inactive) | > 100 µM (inactive) | > 100 µM (inactive) |  | > 100 µM (inactive) | > 100 µM (inactive) | > 100 µM (inactive) | > 100 µM (inactive) | > 100 µM (inactive) | > 100 µM (inactive) | > 100 µM (inactive) | > 100 µM (inactive) | > 100 µM (inactive) | > 100 µM (inactive) | > 100 µM (inactive) |
| C[C@H]1COC(c2ccccn2)=N1 | > 100 µM (inactive) | > 100 µM (inactive) | > 100 µM (inactive) | > 100 µM (inactive) | > 100 µM (inactive) | > 100 µM (inactive) | > 100 µM (inactive) |  | > 100 µM (inactive) | > 100 µM (inactive) | > 100 µM (inactive) | > 100 µM (inactive) | > 100 µM (inactive) | > 100 µM (inactive) | > 100 µM (inactive) | > 100 µM (inactive) | > 100 µM (inactive) | > 100 µM (inactive) | > 100 µM (inactive) |
| CC12CCC3C(CCC4=CC(O)CCC43C=O)C1(O)CCC2c1ccc(=O)oc1 (configuration not stated) |  |  |  | 0.05 µM (active) | 0.00929 µM (active) | 0.00984 µM (active) | 0.0129 µM (active) |  |  | 0.0104 µM (active) | 0.00385 µM (active) | 0.05 µM (active) | 0.0113 µM (active) | 0.00438 µM (active) | 0.00622 µM (active) | 0.05 µM (active) | 0.00556 µM (active) | 0.05 µM (active) | 0.00395 µM (active) |
| CC1=N/C(=C/c2ccc3c(c2)OCO3)C(=O)O1 | > 100 µM (inactive) | > 100 µM (inactive) | > 100 µM (inactive) | > 100 µM (inactive) | > 100 µM (inactive) | > 100 µM (inactive) | > 100 µM (inactive) | > 100 µM (inactive) | > 100 µM (inactive) |  | > 100 µM (inactive) | > 100 µM (inactive) | > 100 µM (inactive) | > 100 µM (inactive) | > 100 µM (inactive) | > 100 µM (inactive) | > 100 µM (inactive) | > 100 µM (inactive) |  |
| CC(=O)NC(CCCNC(=O)N(C)N=O)C(=O)NCc1ccccc1 (configuration not stated) | > 100 µM (inactive) | > 100 µM (inactive) | > 100 µM (inactive) | > 100 µM (inactive) | > 100 µM (inactive) | > 100 µM (inactive) | > 100 µM (inactive) | > 100 µM (inactive) | > 100 µM (inactive) | > 100 µM (inactive) | > 100 µM (inactive) | > 100 µM (inactive) | > 100 µM (inactive) | > 100 µM (inactive) | > 100 µM (inactive) | > 100 µM (inactive) | > 100 µM (inactive) | > 100 µM (inactive) |  |
| COc1ccc2nc3c(C(=O)NCCN(C)C)cccc3cc2c1 | 1.49 µM (inactive) | 0.103 µM (active) | 1.78 µM (inactive) | 0.908 µM (active) | 1.29 µM (inactive) | 2.03 µM (inactive) | 2.96 µM (inactive) |  | 2.82 µM (inactive) | 1.96 µM (inactive) | 3.15 µM (inactive) | 2.98 µM (inactive) | 2.21 µM (inactive) | 1.75 µM (inactive) | 2.23 µM (inactive) | 1.42 µM (inactive) | 3.48 µM (inactive) | 2.16 µM (inactive) | 1.4 µM (inactive) |
| NC(Cc1cc(I)c(O)c(I)c1)C(=O)O (configuration not stated) | > 500 µM (inactive) | 45.4 µM (inactive) | 255 µM (inactive) | 470 µM (inactive) | > 346 µM (inactive) | > 500 µM (inactive) | > 500 µM (inactive) |  | > 484 µM (inactive) | > 500 µM (inactive) | > 392 µM (inactive) | > 500 µM (inactive) | > 500 µM (inactive) | > 500 µM (inactive) | 249 µM (inactive) | 163 µM (inactive) | > 500 µM (inactive) | > 500 µM (inactive) | 185 µM (inactive) |
| CN[C@@H](C)[C@@H](NC)c1ccccc1 | > 100 µM (inactive) | > 100 µM (inactive) | > 100 µM (inactive) | > 100 µM (inactive) | > 100 µM (inactive) | > 100 µM (inactive) | > 100 µM (inactive) | > 100 µM (inactive) |  | > 100 µM (inactive) | > 100 µM (inactive) | > 100 µM (inactive) | > 100 µM (inactive) | > 100 µM (inactive) |  | > 100 µM (inactive) | 1.52 µM (inactive) | > 100 µM (inactive) |  |
| CC(=O)OC(C)C(=O)C1c2cccc(O)c2C(=O)c2c(O)cc(C)cc21 (configuration not stated) | 0.322 µM (active) | 1.71 µM (inactive) | 0.711 µM (active) | 0.31 µM (active) | 1.66 µM (inactive) | 0.478 µM (active) | 0.33 µM (active) |  | 0.381 µM (active) | 0.344 µM (active) | 0.254 µM (active) | 1.01 µM (active) | 0.546 µM (active) | 0.879 µM (active) | 0.344 µM (active) | 0.502 µM (active) | 0.26 µM (active) | 0.991 µM (active) | 0.308 µM (active) |
| O=S(=O)(N/C(=N\O)Nc1ccc(Cl)cc1)c1cc2ccccc2s1 | 18.7 µM (inactive) | 15.8 µM (inactive) | 21.9 µM (inactive) | 16.6 µM (inactive) | 19.6 µM (inactive) | 13.5 µM (inactive) | 22.3 µM (inactive) | 17.9 µM (inactive) | 15.2 µM (inactive) | 20.1 µM (inactive) | 18.5 µM (inactive) | 19.4 µM (inactive) | 16.7 µM (inactive) | 18.6 µM (inactive) | 17 µM (inactive) | 23.7 µM (inactive) | 15.2 µM (inactive) |  | 11.7 µM (inactive) |
